Counter-ions that a name gives are not always drawn.
What was measured:
RON (human) = RON (human) (Homo sapiens, UniProt Q04912); experiment: RON kinase AlphaScreen assay (Km of ATP); assay type: biochemical; settings: ATP at Km; at least duplicate experiments
Outline: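 AlphaScreen with PT66 donor/acceptor beads, read after 1 h, detected phosphorylation of biotinylated poly(Glu,Tyr) by human RON. Enzyme-started reactions ran 30 min at room temperature with ATP at Km. Buffer was HEPES pH 7.4 with MgCl2, glycerol, vanadate and 1% DMSO.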

MET (human) = MET (human) (Homo sapiens, UniProt P08581); experiment: MET kinase AlphaScreen assay (Km of ATP); assay type: biochemical; settings: ATP at Km; at least duplicate experiments
Outline: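 AlphaScreen detection with PT66 beads (1 h) follows a 60 min room-temperature MET reaction. Substrate is 200 ng/μL biotinylated poly(Glu,Tyr), with ATP set at an enzyme-optimized concentration. Buffer is HEPES pH 7.4 with MgCl2, MnCl2 and 0.334 mM vanadate, compounds at 1% DMSO.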

MET (human), sequence (P08581 25-1390): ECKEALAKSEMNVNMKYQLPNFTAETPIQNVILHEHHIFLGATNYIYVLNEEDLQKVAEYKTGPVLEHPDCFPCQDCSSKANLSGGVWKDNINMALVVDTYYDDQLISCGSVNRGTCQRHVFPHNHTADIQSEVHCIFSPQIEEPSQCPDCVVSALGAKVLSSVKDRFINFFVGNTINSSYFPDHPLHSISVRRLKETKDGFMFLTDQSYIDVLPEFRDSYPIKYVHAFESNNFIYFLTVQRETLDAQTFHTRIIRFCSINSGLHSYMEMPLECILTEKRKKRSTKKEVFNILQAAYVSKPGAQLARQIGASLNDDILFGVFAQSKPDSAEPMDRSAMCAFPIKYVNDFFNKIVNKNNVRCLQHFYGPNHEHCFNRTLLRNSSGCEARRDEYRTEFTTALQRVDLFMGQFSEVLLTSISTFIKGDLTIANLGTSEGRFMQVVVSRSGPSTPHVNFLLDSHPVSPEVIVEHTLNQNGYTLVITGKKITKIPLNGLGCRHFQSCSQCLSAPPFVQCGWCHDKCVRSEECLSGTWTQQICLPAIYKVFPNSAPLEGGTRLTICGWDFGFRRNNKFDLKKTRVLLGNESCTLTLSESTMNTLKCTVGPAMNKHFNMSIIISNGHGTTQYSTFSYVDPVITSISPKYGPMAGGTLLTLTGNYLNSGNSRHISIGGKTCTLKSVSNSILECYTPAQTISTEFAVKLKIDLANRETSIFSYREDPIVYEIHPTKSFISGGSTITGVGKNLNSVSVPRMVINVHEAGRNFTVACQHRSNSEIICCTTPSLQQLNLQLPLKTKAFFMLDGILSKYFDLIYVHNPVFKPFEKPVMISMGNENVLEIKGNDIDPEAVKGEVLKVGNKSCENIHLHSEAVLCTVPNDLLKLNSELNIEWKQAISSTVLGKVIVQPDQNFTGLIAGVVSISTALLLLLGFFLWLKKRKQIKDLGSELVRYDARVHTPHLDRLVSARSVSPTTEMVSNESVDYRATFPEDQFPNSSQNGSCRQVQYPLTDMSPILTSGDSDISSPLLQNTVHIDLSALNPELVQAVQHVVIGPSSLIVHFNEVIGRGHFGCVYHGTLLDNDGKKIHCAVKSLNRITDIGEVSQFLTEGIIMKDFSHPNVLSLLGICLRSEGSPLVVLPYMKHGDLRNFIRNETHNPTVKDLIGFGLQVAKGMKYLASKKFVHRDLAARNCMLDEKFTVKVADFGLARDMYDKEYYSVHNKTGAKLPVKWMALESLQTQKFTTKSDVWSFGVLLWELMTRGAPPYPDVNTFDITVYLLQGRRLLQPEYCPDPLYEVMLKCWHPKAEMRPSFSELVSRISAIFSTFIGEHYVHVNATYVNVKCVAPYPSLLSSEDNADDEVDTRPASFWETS
RON (human), sequence (Q04912 25-1400): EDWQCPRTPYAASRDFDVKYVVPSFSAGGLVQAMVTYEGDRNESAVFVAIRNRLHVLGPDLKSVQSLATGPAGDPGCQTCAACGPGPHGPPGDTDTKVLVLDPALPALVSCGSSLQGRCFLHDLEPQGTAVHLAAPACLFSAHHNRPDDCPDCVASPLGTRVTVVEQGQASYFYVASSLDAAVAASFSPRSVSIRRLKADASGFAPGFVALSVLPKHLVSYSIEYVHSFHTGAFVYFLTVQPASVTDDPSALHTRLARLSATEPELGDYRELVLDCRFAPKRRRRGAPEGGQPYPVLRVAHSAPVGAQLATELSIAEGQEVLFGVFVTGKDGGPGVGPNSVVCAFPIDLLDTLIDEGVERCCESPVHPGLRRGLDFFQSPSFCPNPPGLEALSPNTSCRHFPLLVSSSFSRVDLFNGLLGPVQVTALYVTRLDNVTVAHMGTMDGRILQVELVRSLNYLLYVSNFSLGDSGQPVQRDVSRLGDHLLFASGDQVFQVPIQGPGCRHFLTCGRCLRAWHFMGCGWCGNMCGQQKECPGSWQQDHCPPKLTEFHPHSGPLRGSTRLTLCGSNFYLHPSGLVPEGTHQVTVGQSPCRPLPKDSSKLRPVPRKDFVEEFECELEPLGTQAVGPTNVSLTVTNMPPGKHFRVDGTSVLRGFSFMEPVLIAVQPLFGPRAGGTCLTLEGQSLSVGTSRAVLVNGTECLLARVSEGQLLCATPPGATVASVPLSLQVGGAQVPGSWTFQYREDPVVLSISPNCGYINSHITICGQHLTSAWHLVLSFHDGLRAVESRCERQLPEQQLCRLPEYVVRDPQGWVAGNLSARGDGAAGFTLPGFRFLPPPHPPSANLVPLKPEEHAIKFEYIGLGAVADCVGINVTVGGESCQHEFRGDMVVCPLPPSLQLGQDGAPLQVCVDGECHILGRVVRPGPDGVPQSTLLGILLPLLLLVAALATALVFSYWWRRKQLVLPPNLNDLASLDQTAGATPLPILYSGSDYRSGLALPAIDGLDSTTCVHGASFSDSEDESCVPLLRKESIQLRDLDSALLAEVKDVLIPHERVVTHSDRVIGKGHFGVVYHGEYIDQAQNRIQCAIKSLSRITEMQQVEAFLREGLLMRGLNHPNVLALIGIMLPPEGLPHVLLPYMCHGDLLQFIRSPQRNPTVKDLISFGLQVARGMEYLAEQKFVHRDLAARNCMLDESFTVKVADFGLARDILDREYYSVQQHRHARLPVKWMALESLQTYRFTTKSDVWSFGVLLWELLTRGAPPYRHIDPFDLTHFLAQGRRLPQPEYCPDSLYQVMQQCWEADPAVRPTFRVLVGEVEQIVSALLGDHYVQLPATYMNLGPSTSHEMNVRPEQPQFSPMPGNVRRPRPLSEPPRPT

| SMILES | IC50 (RON (human)) [nM] | IC50 (MET (human)) [nM] |
| --- | --- | --- |
| Nc1ncc(-c2cnn(C3CCNCC3)c2)cc1-c1nc2cccc(-c3cc[nH]c3)c2s1 [Example 251, 5-(1-Piperidin-4-yl-1H-pyrazol-4-yl)-3-[7-(1H-pyrrol-3-yl)benzothiazol-2-yl]pyridin-2-ylamine trifluoroacetate] | 100 to 1000 | 100 to 1000 |
| Nc1ncc(-c2cnn(C3CCNCC3)c2)cc1-c1nc2ccc(F)cc2s1 [Example 252, 3-(6-Fluorobenzothiazol-2-yl)-5-(1-piperidin-4-yl-1H-pyrazol-4-yl)-pyridin-2-ylamine] | 100 to 1000 | 100 to 1000 |
| Nc1ncc(-c2cnn(C3CCNCC3)c2)cc1-c1nc2ccc(Cl)cc2s1 [Example 253, 3-(6-Chlorobenzothiazol-2-yl)-5-(1-piperidin-4-yl-1H-pyrazol-4-yl)-pyridin-2-ylamine] | 100 to 1000 | 100 to 1000 |
| Cc1ccc2nc(-c3cc(-c4cnn(C5CCNCC5)c4)cnc3N)sc2c1 [Example 254, 3-(6-Methylbenzothiazol-2-yl)-5-(1-piperidin-4-yl-1H-pyrazol-4-yl)-pyridin-2-ylamine] | 100 to 1000 | 100 to 1000 |
| COc1ccc2nc(-c3cc(-c4cnn(C5CCNCC5)c4)cnc3N)sc2c1 [Example 255, 3-(6-Methoxybenzothiazol-2-yl)-5-(1-piperidin-4-yl-1H-pyrazol-4-yl)-pyridin-2-ylamine] | 100 to 1000 | 100 to 1000 |
| Nc1ncc(-c2cnn(C3CCNCC3)c2)cc1-c1nc2c(F)cccc2s1 [Example 256, 3-(4-Fluorobenzothiazol-2-yl)-5-(1-piperidin-4-yl-1H-pyrazol-4-yl)-pyridin-2-ylamine] | 100 to 1000 | ≤ 100 |
| Cc1cccc2sc(-c3cc(-c4cnn(C5CCNCC5)c4)cnc3N)nc12 [Example 257, 3-(4-Methylbenzothiazol-2-yl)-5-(1-piperidin-4-yl-1H-pyrazol-4-yl)-pyridin-2-ylamine] | 100 to 1000 | 100 to 1000 |
| Nc1ncc(-c2cnn(C3CCNCC3)c2)cc1-c1nc2cc(Cl)ccc2s1 [Example 258, 3-(5-Chlorobenzothiazol-2-yl)-5-(1-piperidin-4-yl-1H-pyrazol-4-yl)-pyridin-2-ylamine] | 100 to 1000 | ≤ 100 |
| Nc1ncc(-c2cnn(C3CCNCC3)c2)cc1-c1nc2cccc(Cl)c2s1 [Example 259, 3-(7-Chlorobenzothiazol-2-yl)-5-(1-piperidin-4-yl-1H-pyrazol-4-yl)-pyridin-2-ylamine] | ≤ 100 | ≤ 100 |
| Nc1ncc(-c2cnn(C3CCNCC3)c2)cc1-c1nc2cccc(C(F)(F)F)c2s1 [Example 260, 5-(1-Piperidin-4-yl-1H-pyrazol-4-yl)-3-(7-trifluoromethylbenzothiazol-2-yl)-pyridin-2-ylamine] | 100 to 1000 | 100 to 1000 |
| Nc1ncc(-c2cnn(C3CCNCC3)c2)cc1-c1nc2cc(C(F)(F)F)ccc2s1 [Example 261, 5-(1-Piperidin-4-yl-1H-pyrazol-4-yl)-3-(5-trifluoromethylbenzothiazol-2-yl)-pyridin-2-ylamine] | 100 to 1000 | 100 to 1000 |
| Nc1ncc(-c2cnn(C3CCNCC3)c2)cc1-c1nc2c(C(F)(F)F)cccc2s1 [Example 262, 5-(1-Piperidin-4-yl-1H-pyrazol-4-yl)-3-(4-trifluoromethylbenzothiazol-2-yl)-pyridin-2-ylamine] | 100 to 1000 | 100 to 1000 |
| Cc1cccc2nc(-c3cc(-c4cnn(C5CCNCC5)c4)cnc3N)sc12 [Example 263, 3-(7-Methylbenzothiazol-2-yl)-5-(1-piperidin-4-yl-1H-pyrazol-4-yl)-pyridin-2-ylamine] | ≤ 100 | ≤ 100 |
| COc1cccc2nc(-c3cc(-c4cnn(C5CCNCC5)c4)cnc3N)sc12 [Example 264, 3-(7-Methoxybenzothiazol-2-yl)-5-(1-piperidin-4-yl-1H-pyrazol-4-yl)-pyridin-2-ylamine] | 100 to 1000 | ≤ 100 |
| Nc1ncc(-c2cnn(C3CCNCC3)c2)cc1-c1nc2c(Br)cccc2s1 [Example 265, 3-(4-Bromobenzothiazol-2-yl)-5-(1-piperidin-4-yl-1H-pyrazol-4-yl)-pyridin-2-ylamine] | 100 to 1000 | ≤ 100 |
| Nc1ncc(-c2cnn(C3CCNCC3)c2)cc1-c1nc2ccc(OC(F)(F)F)cc2s1 [Example 266, 5-(1-Piperidin-4-yl-1H-pyrazol-4-yl)-3-(6-trifluoromethoxybenzothiazol-2-yl)-pyridin-2-ylamine] | 1000 to 20000 | 1000 to 20000 |
| N#Cc1ccc2sc(-c3cc(-c4cnn(C5CCNCC5)c4)cnc3N)nc2c1 [Example 267, 2-[2-Amino-5-(1-piperidin-4-yl-1H-pyrazol-4-yl)-pyridin-3-yl]-benzothiazole-5-carbonitrile] | ≤ 100 | ≤ 100 |
| N#Cc1ccc2nc(-c3cc(-c4cnn(C5CCNCC5)c4)cnc3N)sc2c1 [Example 268, 2-[2-Amino-5-(1-piperidin-4-yl-1H-pyrazol-4-yl)-pyridin-3-yl]-benzothiazole-6-carbonitrile] | 100 to 1000 | 100 to 1000 |
| Nc1ncc(-c2cnn(C3CCNCC3)c2)cc1-c1nc2c(C(F)(F)F)ccc(F)c2s1 [Example 269, 3-(7-Fluoro-4-trifluoromethylbenzothiazol-2-yl)-5-(1-piperidin-4-yl-1H-pyrazol-4-yl)-pyridin-2-ylamine] | 100 to 1000 | 100 to 1000 |
| Nc1ncc(-c2cnn(C3CCNCC3)c2)cc1-c1nc2cccc(F)c2s1 [Example 270, 3-(7-Fluorobenzothiazol-2-yl)-5-(1-piperidin-4-yl-1H-pyrazol-4-yl)-pyridin-2-ylamine] | 100 to 1000 | 100 to 1000 |
| COc1ccc2sc(-c3cc(-c4cnn(C5CCNCC5)c4)cnc3N)nc2c1 [Example 271, 3-(5-Methoxybenzothiazol-2-yl)-5-(1-piperidin-4-yl-1H-pyrazol-4-yl)-pyridin-2-ylamine] | 100 to 1000 | 100 to 1000 |
| Cc1ccc2sc(-c3cc(-c4cnn(C5CCNCC5)c4)cnc3N)nc2c1 [Example 272, 3-(5-Methylbenzothiazol-2-yl)-5-(1-piperidin-4-yl-1H-pyrazol-4-yl)-pyridin-2-ylamine] | 100 to 1000 | 100 to 1000 |
| Nc1ncc(-c2cnn(C3CCNCC3)c2)cc1-c1nc2cccc(Br)c2s1 [Example 273, 3-(7-Bromobenzothiazol-2-yl)-5-(1-piperidin-4-yl-1H-pyrazol-4-yl)-pyridin-2-ylamine] | ≤ 100 | ≤ 100 |
| Nc1ncc(-c2cnn(C3CCNCC3)c2)cc1-c1nc2c(F)c(F)ccc2s1 [Example 274, 3-(4,5-Difluorobenzothiazol-2-yl)-5-(1-piperidin-4-yl-1H-pyrazol-4-yl)-pyridin-2-ylamine] | 100 to 1000 | ≤ 100 |
| N#Cc1cccc2nc(-c3cc(-c4cnn(C5CCNCC5)c4)cnc3N)sc12 [Example 275, 2-[2-Amino-5-(1-piperidin-4-yl-1H-pyrazol-4-yl)-pyridin-3-yl]-benzothiazole-7-carbonitrile] | 100 to 1000 | 100 to 1000 |
| Nc1ncc(-c2cnn(C3CCNCC3)c2)cc1-c1nc2cc(Br)ccc2s1 [Example 276, 3-(5-Bromobenzothiazol-2-yl)-5-(1-piperidin-4-yl-1H-pyrazol-4-yl)-pyridin-2-ylamine] | 100 to 1000 | 100 to 1000 |

Source: patent publication US8178668B2, “2-aminopyridine kinase inhibitors” (OSI Pharmaceuticals, LLC, priority 2008, dated 2012)
